Source: paper PMC4984408 (ChemistryOpen, 2016)
Where two headings read alike, the source gives them in different places.

Legend:
[1] = tested on: dengue viruses (DENV, serotype D2); assay type: cell-based, dengue virus
[2] = tested on: yellow fever (YFV, 17 D strain of ASIBI); assay type: cell-based, yellow fever virus
[3] = tested on: Vero cells

SMILES	anti-DENV activity (in words) [1]	D2 inhibition [% Cells alive] ([1]; 5 μM)	D2 inhibition [% Cells alive] ([1]; 10 μM)	D2 inhibition [% Cells alive] ([1]; 20 μM)	YFV inhibition [% Cells alive] ([2]; 5 μM)	YFV inhibition [% Cells alive] ([2]; 10 μM)	CC50 [3]	YFV inhibition [% Cells alive] ([2]; 20 μM)	anti-YFV activity (in words) [2]	cytotoxicity (in words) [3]
Cc1cn([C@@H]2O[C@H](COC(c3ccccc3)(c3ccccc3)c3ccccc3)[C@@H](O)[C@H]2O)c(=O)[nH]c1=O [19 D, 5′‐O‐trityl‐5‐methyluridine]	no inhibitory properties	0 % Cells alive	0 % Cells alive	0 % Cells alive	0 % Cells alive	0 % Cells alive	–	–	–	–
Cc1cn([C@H]2C[C@H](O)[C@@H](COC(c3ccccc3)(c3ccccc3)c3ccccc3)O2)c(=O)[nH]c1=O [Compound 1, 5′‐O‐trityl‐thymidine]	no inhibitory properties	0 % Cells alive	0 % Cells alive	0 % Cells alive	0 % Cells alive	1.25±0.03 % Cells alive	–	–	–	–
COc1ccc(C(OC[C@H]2O[C@@H](n3cc(F)c(=O)[nH]c3=O)[C@H](O)[C@@H]2O)(c2ccccc2)c2ccc(OC)cc2)cc1 [6 H, 5′‐O‐dimethoxytrityl‐5‐fluorouridine]	–	0 % Cells alive	0 % Cells alive	0 % Cells alive	9.22±0.46 % Cells alive	30.89±1.85 % Cells alive	> 20 µM	–	–	–
COc1ccc(C(OCC2OC(n3ccc(NC(C)=O)nc3=O)CS2)(c2ccccc2)c2ccc(OC)cc2)cc1 (stereo not shown) [12 H, 5′‐O‐Dimetoxytrityl‐N‐acetyl‐lamivudine]	–	0 % Cells alive	0 % Cells alive	0 % Cells alive	0 % Cells alive	0 % Cells alive	> 20 µM	70.45±18.31 % Cells alive	–	–
COc1ccc(C(OC[C@H]2O[C@@H](n3ccc(=O)[nH]c3=O)[C@H](O)[C@@H]2O)(c2ccccc2)c2ccc(OC)cc2)cc1 [9 H, 5′‐O‐Dimethoxytrityluridine]	–	0 % Cells alive	0 % Cells alive	0 % Cells alive	–	–	> 20 µM	–	–	–
COc1ccc(C(OC[C@H]2O[C@@H](n3cc(F)c(=O)[nH]c3=O)C[C@@H]2O)(c2ccccc2)c2ccc(OC)cc2)cc1 [15 H, 5′‐O‐dimethoxytrityl‐5‐fluoro‐2′‐deoxyuridine]	–	0 % Cells alive	0 % Cells alive	0 % Cells alive	0 % Cells alive	–	> 20 µM	–	–	–
O[C@H]1[C@H](O)[C@@H](COC(c2ccccc2)(c2ccccc2)c2ccccc2)O[C@H]1n1cnc2c(NC(c3ccccc3)(c3ccccc3)c3ccccc3)nc(F)nc21 [20 D‐NHTr, 5′‐O,N‐trityl‐fludarabine]	–	–	–	–	0 % Cells alive	0.28 % Cells alive	> 20 µM	0.84 % Cells alive	devoid of any significant anti‐YFV inhibitory effect	no cytotoxicity
NC(=O)c1ncn([C@@H]2O[C@H](COC(c3ccccc3)(c3ccccc3)c3ccccc3)[C@@H](OC(c3ccccc3)(c3ccccc3)c3ccccc3)[C@H]2O)n1 [5 B, 5′,3′‐bis‐O‐tritylribavirin]	–	0 % Cells alive	0 % Cells alive	–	0 % Cells alive	0 % Cells alive	> 20 µM	0 % Cells alive	–	–
COc1ccc(C(OC[C@H]2O[C@@H](n3ccc(=O)[nH]c3=O)[C@H](F)[C@@H]2O)(c2ccccc2)c2ccc(OC)cc2)cc1 [16 H, 5′‐O‐dimethoxytrityl‐2′‐fluoro‐2′‐deoxyuridine]	–	0 % Cells alive	0 % Cells alive	0 % Cells alive	0 % Cells alive	0 % Cells alive	> 20 µM	–	–	–
O=c1[nH]c(=O)n([C@H]2C[C@H](O)[C@@H](COC(c3ccccc3)(c3ccccc3)c3ccccc3)O2)cc1I [14 D, 5′‐O‐Trityl‐5‐iodo‐2′‐deoxyuridine]	–	0 % Cells alive	0 % Cells alive	2.47±0.06 % Cells alive	0 % Cells alive	0 % Cells alive	–	0 % Cells alive	–	–
O=c1ccn([C@@H]2O[C@H](COC(c3ccccc3)(c3ccccc3)c3ccccc3)[C@@H](O)[C@H]2F)c(=O)[nH]1 [16 D, 5′‐O‐trityl‐2′‐fluoro‐2′‐deoxyuridine]	–	0 % Cells alive	0 % Cells alive	–	0 % Cells alive	0 % Cells alive	–	0 % Cells alive	–	–
O=c1[nH]c(=O)n([C@@H]2O[C@H](COC(c3ccccc3)(c3ccccc3)c3ccccc3)[C@@H](O)[C@H]2O)cc1F [6 D, 5′‐O‐trityl‐5‐fluorouridine]	no inhibitory properties	0 % Cells alive	0 % Cells alive	0 % Cells alive	0 % Cells alive	0 % Cells alive	–	–	–	–
O=c1[nH]c(NC(c2ccccc2)(c2ccccc2)c2ccccc2)nc2c1ncn2CCC(COC(c1ccccc1)(c1ccccc1)c1ccccc1)COC(c1ccccc1)(c1ccccc1)c1ccccc1 [22 B‐NHTr, 2‐N,5′,3′‐O‐tri‐trityl penciclovir]	–	0 % Cells alive	0 % Cells alive	0 % Cells alive	0 % Cells alive	0 % Cells alive	> 20 µM	8.09±0.04 % Cells alive	–	–
Cc1cn([C@H]2C[C@H](OC(c3ccccc3)(c3ccccc3)c3ccccc3)[C@@H](COC(c3ccccc3)(c3ccccc3)c3ccccc3)O2)c(=O)[nH]c1=O [21 B, 5′,3′‐bis‐O‐trityl‐thymidine]	–	0 % Cells alive	0 % Cells alive	0 % Cells alive	0 % Cells alive	0 % Cells alive	–	0.95±0.17 % Cells alive	–	–
